≈ marks a conversion by molar mass, not a printed value. Read-outs that look alike come from different tables or passages of the source. Positions of bridges follow the written chain, without caps; N, C: chain ends. Non-standard residues stand in square brackets, D forms with d. Residues, ends and D or L forms follow the SMILES beside them. *: point of attachment. CH2CH2OBz(4-tBu) = CC(C)(C)c1ccc(C(=O)OCC*)cc1; Ethyl(2-decanoyloxy) = CCCCCCCCCC(=O)OCC*; Ethyl(2-butanoyloxy) = CCCC(=O)OCC*; Ethyl(2-OPiv) = CC(C)(C)C(=O)OCC*; Ethyl(2-OBz) = O=C(OCC*)c1ccccc1; Dab = NCC[C@H](N)C(=O)O
Assays:
[1] = system: P. aeruginosa ATCC 27853; format: cell-based, Pseudomonas aeruginosa
From the text: (§1) All 81 compounds prepared in Examples 2 and 3 underwent screening against a panel of Gram-negative bacterium to assess their ability to inhibit bacterial growth. […] The median value is presented.

[2] = system: A. baumannii ATCC 19606; format: cell-based, Acinetobacter baumannii
From the text: as §1

[3] = system: E. coli ATCC MS8345; format: cell-based, Escherichia coli
From the text: as §1
Expansion of the polymyxin macrocycle by substituting […]) offered little advantage in antimicrobial activity but was generally well tolerated although for A. baumanni and P. aeruginosa this was detrimental.

[4] = system: E. coli ATCC 25922; format: cell-based, Escherichia coli
From the text: as §1

[5] = system: K. pneumoniae ATCC MS6671; format: cell-based, Klebsiella pneumoniae
From the text: as §1

[6] = system: K. pneumoniae ATCC 700603; format: cell-based, Klebsiella pneumoniae
From the text: as §1

[7] = system: K. pneumoniae ATCC 33495; format: cell-based, Klebsiella pneumoniae
From the text: as §1

SMILES	MIC P. aeruginosa ATCC 27853 ([1]; ATCC 27853) [µg/mL]	MIC A. baumannii ATCC 19606 ([2]; ATCC 19606) [µg/mL]	MIC E. coli ATCC MS8345 ([3]; ATCC MS8345) [µg/mL]	MIC E. coli ATCC 25922 ([4]; ATCC 25922) [µg/mL]	MIC K. pneumoniae ATCC MS6671 ([5]; ATCC MS6671) [µg/mL]	MIC K. pneumoniae ATCC 700603 ([6]; ATCC 700603) [µg/mL]	MIC K. pneumoniae ATCC 33495 ([7]; ATCC 33495) [µg/mL]	MIC P. aeruginosa ATCC 27853 ([1]; median of triplicate) [µg/mL]	MIC A. baumannii ATCC 19606 ([2]; median of triplicate) [µg/mL]	MIC E. coli ATCC MS8345 ([3]; colistin-resistant strain, median of triplicate) [µg/mL]	MIC E. coli ATCC 25922 ([4]; median of triplicate) [µg/mL]	MIC K. pneumoniae ATCC MS6671 ([5]; median of triplicate) [µg/mL]	MIC K. pneumoniae ATCC 700603 ([6]; median of triplicate) [µg/mL]	MIC K. pneumoniae ATCC 33495 ([7]; median of triplicate) [µg/mL]
CC(C)C[C@@H]1NC(=O)[C@@H](Cc2ccccc2)NC(=O)[C@H](CCN)NC(=O)[C@@H](NC(=O)[C@H](CCN)NC(=O)[C@@H](NC(=O)[C@H](CCN)NC(=O)[C@@H](N)CSCCOC(=O)c2ccccc2)[C@@H](C)O)CCCCNC(=O)[C@H]([C@@H](C)O)NC(=O)[C@H](CCN)NC(=O)[C@H](CCN)NC1=O [Compound 27] (H-C(Ethyl(2-OBz))[Dab]T[Dab]K[Dab][dF]L[Dab][Dab]T; lactam 5-C)								>32	>32	>32	1 (≈ 0.745 µM)	>32	2 to 4	0.5 (≈ 0.372 µM)
CC(C)C[C@@H]1NC(=O)[C@@H](Cc2ccccc2)NC(=O)[C@H](CCN)NC(=O)[C@@H](NC(=O)[C@H](CCN)NC(=O)[C@@H](NC(=O)[C@H](CCN)NC(=O)[C@@H](N)CSCCOC(=O)c2ccc(C(C)(C)C)cc2)[C@@H](C)O)CCCCNC(=O)[C@H]([C@@H](C)O)NC(=O)[C@H](CCN)NC(=O)[C@H](CCN)NC1=O [Compound 28] (H-C(CH2CH2OBz(4-tBu))[Dab]T[Dab]K[Dab][dF]L[Dab][Dab]T; lactam 5-C)	1 (≈ 0.715 µM)	4 (≈ 2.86 µM)	32 (≈ 22.9 µM)	2 (≈ 1.43 µM)	>32	4 (≈ 2.86 µM)	0.5 (≈ 0.357 µM)							
CCCC(=O)OCCSC[C@H](N)C(=O)N[C@@H](CCN)C(=O)N[C@H](C(=O)N[C@@H](CCN)C(=O)N[C@H]1CCNC(=O)[C@H]([C@@H](C)O)NC(=O)[C@H](CCN)NC(=O)[C@H](CCN)NC(=O)[C@H](CC(C)C)NC(=O)[C@@H](Cc2ccccc2)NC(=O)[C@H](CCN)NC1=O)[C@@H](C)O [Compound 30] (H-C(Ethyl(2-butanoyloxy))[Dab]T[Dab][Dab][Dab][dF]L[Dab][Dab]T; lactam 5-C)	2 (≈ 1.56 µM)	2 (≈ 1.56 µM)	32 (≈ 25 µM)	0.5 (≈ 0.39 µM)	>32	0.5 (≈ 0.39 µM)	0.125 (≈ 0.0976 µM)							
CCCCCCCCCC(=O)OCCSC[C@H](N)C(=O)N[C@@H](CCN)C(=O)N[C@H](C(=O)N[C@@H](CCN)C(=O)N[C@H]1CCNC(=O)[C@H]([C@@H](C)O)NC(=O)[C@H](CCN)NC(=O)[C@H](CCN)NC(=O)[C@H](CC(C)C)NC(=O)[C@@H](Cc2ccccc2)NC(=O)[C@H](CCN)NC1=O)[C@@H](C)O [Compound 31] (H-C(Ethyl(2-decanoyloxy))[Dab]T[Dab][Dab][Dab][dF]L[Dab][Dab]T; lactam 5-C)	1 (≈ 0.733 µM)	1 (≈ 0.733 µM)	2 to 4	2 (≈ 1.47 µM)	>32	4 (≈ 2.93 µM)	0.5 (≈ 0.366 µM)							
CC(C)C[C@@H]1NC(=O)[C@@H](Cc2ccccc2)NC(=O)[C@H](CCN)NC(=O)[C@@H](NC(=O)[C@H](CCN)NC(=O)[C@@H](NC(=O)[C@H](CCN)NC(=O)[C@@H](N)CSCCOC(=O)C(C)(C)C)[C@@H](C)O)CCNC(=O)[C@H]([C@@H](C)O)NC(=O)[C@H](CCN)NC(=O)[C@H](CCN)NC1=O [Compound 32] (H-C(Ethyl(2-OPiv))[Dab]T[Dab][Dab][Dab][dF]L[Dab][Dab]T; lactam 5-C)	1 (≈ 0.772 µM)	1 (≈ 0.772 µM)	16 (≈ 12.4 µM)	0.25 (≈ 0.193 µM)	>32	0.5 (≈ 0.386 µM)	0.125 (≈ 0.0966 µM)							

Second part, led by results:

MIC P. aeruginosa ATCC 27853 ([1]; ATCC 27853) [µg/mL]	MIC A. baumannii ATCC 19606 ([2]; ATCC 19606) [µg/mL]	MIC E. coli ATCC MS8345 ([3]; ATCC MS8345) [µg/mL]	MIC E. coli ATCC 25922 ([4]; ATCC 25922) [µg/mL]	MIC K. pneumoniae ATCC MS6671 ([5]; ATCC MS6671) [µg/mL]	MIC K. pneumoniae ATCC 700603 ([6]; ATCC 700603) [µg/mL]	MIC K. pneumoniae ATCC 33495 ([7]; ATCC 33495) [µg/mL]	SMILES	MIC P. aeruginosa ATCC 27853 ([1]; median of triplicate) [µg/mL]	MIC A. baumannii ATCC 19606 ([2]; median of triplicate) [µg/mL]	MIC E. coli ATCC MS8345 ([3]; colistin-resistant strain, median of triplicate) [µg/mL]	MIC E. coli ATCC 25922 ([4]; median of triplicate) [µg/mL]	MIC K. pneumoniae ATCC MS6671 ([5]; median of triplicate) [µg/mL]	MIC K. pneumoniae ATCC 700603 ([6]; median of triplicate) [µg/mL]	MIC K. pneumoniae ATCC 33495 ([7]; median of triplicate) [µg/mL]
0.5 (≈ 0.365 µM)	1 (≈ 0.73 µM)	1 (≈ 0.73 µM)	1 (≈ 0.73 µM)	>32	1 (≈ 0.73 µM)	0.25 (≈ 0.182 µM)	CC(C)C[C@@H]1NC(=O)[C@@H](Cc2ccccc2)NC(=O)[C@H](CCN)NC(=O)[C@@H](NC(=O)[C@H](CCN)NC(=O)[C@@H](NC(=O)[C@H](CCN)NC(=O)[C@@H](N)CSCCOC(=O)c2ccc(C(C)(C)C)cc2)[C@@H](C)O)CCNC(=O)[C@H]([C@@H](C)O)NC(=O)[C@H](CCN)NC(=O)[C@H](CCN)NC1=O [Compound 34] (H-C(CH2CH2OBz(4-tBu))[Dab]T[Dab][Dab][Dab][dF]L[Dab][Dab]T; lactam 5-C)							
16 (≈ 11.6 µM)	16 (≈ 11.6 µM)	32 (≈ 23.1 µM)	0.25 (≈ 0.181 µM)	>32	0.25 to 0.5	0.25 to 0.5	CCCC(=O)OCCSC[C@@H]1NC(=O)[C@@H](Cc2ccccc2)NC(=O)[C@H](CCN)NC(=O)[C@@H](NC(=O)[C@H](CCN)NC(=O)[C@@H](NC(=O)[C@H](CCN)NC(=O)[C@@H](N)CSCCOC(=O)CCC)[C@@H](C)O)CCNC(=O)[C@H]([C@@H](C)O)NC(=O)[C@H](CCN)NC(=O)[C@H](CCN)NC1=O [Compound 36] (H-C(Ethyl(2-butanoyloxy))[Dab]T[Dab][Dab][Dab][dF]C(Ethyl(2-butanoyloxy))[Dab][Dab]T; lactam 5-C)							
4 (≈ 2.58 µM)	4 (≈ 2.58 µM)	4 (≈ 2.58 µM)	2 to 4	>32	4 (≈ 2.58 µM)	2 (≈ 1.29 µM)	CCCCCCCCCC(=O)OCCSC[C@@H]1NC(=O)[C@@H](Cc2ccccc2)NC(=O)[C@H](CCN)NC(=O)[C@@H](NC(=O)[C@H](CCN)NC(=O)[C@@H](NC(=O)[C@H](CCN)NC(=O)[C@@H](N)CSCCOC(=O)CCCCCCCCC)[C@@H](C)O)CCNC(=O)[C@H]([C@@H](C)O)NC(=O)[C@H](CCN)NC(=O)[C@H](CCN)NC1=O [Compound 37] (H-C(Ethyl(2-decanoyloxy))[Dab]T[Dab][Dab][Dab][dF]C(Ethyl(2-decanoyloxy))[Dab][Dab]T; lactam 5-C)							
2 (≈ 1.28 µM)	2 (≈ 1.28 µM)	4 (≈ 2.56 µM)	2 to 4	>32	2 (≈ 1.28 µM)	2 to 4	C[C@@H](O)[C@@H]1NC(=O)[C@H](CCN)NC(=O)[C@H](CCN)NC(=O)[C@H](CSCCOC(=O)c2ccc(C(C)(C)C)cc2)NC(=O)[C@@H](Cc2ccccc2)NC(=O)[C@H](CCN)NC(=O)[C@@H](NC(=O)[C@H](CCN)NC(=O)[C@@H](NC(=O)[C@H](CCN)NC(=O)[C@@H](N)CSCCOC(=O)c2ccc(C(C)(C)C)cc2)[C@@H](C)O)CCNC1=O [Compound 40] (H-C(CH2CH2OBz(4-tBu))[Dab]T[Dab][Dab][Dab][dF]C(CH2CH2OBz(4-tBu))[Dab][Dab]T; lactam 5-C)							

Reference: patent US20250282827A1, “LIPIDATED POLYMYXIN ANALOGUES” (priority 2021, published 2025)
